Legend:
Format in all cases: cell-based, human
[1] = tested on: MDA-MB-231 cells; test: Cell viability, CCK-8 assay, MDA-MB-231; settings: MDA-MB-231 (KRAS G13D), CCK-8, 0-1,000 μM RBP, 24, 48 or 72 h, triplicate
Protocol: (§1) The viability of the cells was determined via Cell Counting Kit-8 (CCK-8; Dojindo Laboratories, Kumamoto, Japan) assay. The cells were plated in 96-well culture plates at a density of 5 × 10^3 cells per well and incubated for 24 h at 37 °C in a humidified incubator with 5% CO2. […] After incubation, the medium was replaced with fresh medium containing 10% (v/v) CCK-8 reagent, and the cells were incubated for 2 h. Absorbance was measured at 450 nm using a microplate reader. All experiments were performed in triplicate.

[2] = tested on: HCT-116 cells; test: Cell viability, CCK-8 assay, HCT-116; settings: HCT-116 (KRAS G13D), CCK-8, 0-1,000 μM RBP, 24, 48 or 72 h, triplicate
Protocol: as §1

[3] = tested on: MDA-MB-231 cells; test: Sphere formation assay
Protocol: The sphere formation potential of the cells was evaluated under nonadherent culture conditions. The cells were cultured in ultralow-attachment 6-well plates (Corning Life Sciences, MA, USA) at a density of 2 × 10^3 cells per well, since the low overall viability of […] prevents the use of single-cell culture methods. The cells were grown in DMEM/F12 (Invitrogen, CA, USA) supplemented with B27 serum-free supplement (1:50; Invitrogen, CA, USA), human recombinant epidermal growth factor (EGF), and 50 ng/ml human recombinant basic fibroblast growth factor (PeproTech, NJ, USA) with 100 μM peptides at 37 °C with 5% CO2. Fresh medium was added every 3 to 4 d, and sphere formation was monitored. The experiment was terminated on day 10, and the number of spheres (>50 μm) was quantified.

[4] = tested on: MDA-MB-231 cells; test: Transwell migration assay; settings: MDA-MB-231, Transwell 8-μm pore, 200 μM RBP, 6 h
Protocol: To assess MDA-MB-231 cell migration, 2 methods were employed: a Transwell migration assay and a scratch assay. For the Transwell migration assay, 24-well Transwell plates (8-μm pore size; Costar, Corning Incorporated, Corning, NY, USA) were used to evaluate the invasive potential of the cells. […] Following a 6-h incubation period, nonmigratory cells were carefully removed from the upper surface of the membrane using a PBS-soaked cotton swab. The cells that successfully migrated through the membrane were fixed in methanol for 10 min, and Giemsa staining was used to visualize them. Images were captured using an Olympus DP72 camera at ×100 magnification, and the number of migrated cells in the treated samples was compared with that in the control samples. For the scratch assay, MDA-MB-231 cells (1 × 10^6 cells) were cultured in 6-well plates until they reached confluence. The cells were rinsed with PBS and incubated overnight in serum-free medium. A sterile 200-μl plastic pipette tip was used to create a linear scratch in the center of the monolayer. […] Images were taken immediately after scratching and again after 6, 24, 48, and 72 h of incubation using an Olympus CKX41 inverted microscope at ×20 magnification to evaluate the distance the cells migrated from the wound edge.

[5] = tested on: phospho-c-RAF and phospho-ERK1/2 in HCT-116 cells; test: Western blot of RAS-MAPK pathway, HCT-116; settings: HCT-116, 10-250 μM RBP 6 h then 50 ng/ml EGF 10 min
Protocol: (§2) Protein expression was confirmed via Western blot analysis. Briefly, 9 × 10^5 cells were cultured in 100-mm-diameter dishes. When they reached 90% confluence, the cells were starved for 18 h in serum-free medium. […] At the end of the culture period, the cells were lysed for 20 min in cold lysis buffer on ice. Protein concentration was measured using bicinchoninic acid protein assays (Thermo Fisher Scientific, MA, USA). Equal aliquots of protein (40 μg) were boiled for 7 min in 5× sample buffer and separated by 10% SDS–PAGE. Proteins were transferred onto nitrocellulose membranes, followed by washing with Tris-buffered saline (TBS) containing 0.1% Tween 20 (TBST). The membranes were then blocked for 60 min at room temperature with 5% skim milk in TBST. Following the washing procedure, the membranes were incubated with primary antibodies (RAS, phospho-ERK1/2, ERK1/2, phospho-RAF proto-oncogene serine/threonine-protein kinase [phospho-c-RAF; S338], c-RAF [Cell Signaling Technology, Beverly, MA, USA], and GAPDH [Santa Cruz Biotechnology, Inc., Santa Cruz, CA, USA]) diluted in TBST containing 5% skim milk at 4 °C for 18 h. […] The membranes were subsequently washed 3 more times, and protein bands were detected using chemiluminescence reagents (West Pico PLUS, Thermo Fisher Scientific, USA).

[6] = tested on: phospho-c-RAF and phospho-ERK1/2 in MCF-7 cells; test: Western blot of RAS-MAPK pathway, MCF-7; settings: MCF-7, 10-250 μM RBP 6 h then 50 ng/ml EGF 10 min
Protocol: as §2

[7] = tested on: phospho-c-RAF and phospho-ERK1/2 in HT-29 cells; test: Western blot of RAS-MAPK pathway, HT-29; settings: HT-29, 10-250 μM RBP 6 h then 50 ng/ml EGF 10 min
Protocol: as §2

## C[C@@H](O)[C@H](NC(=O)[C@H](CO)NC(=O)[C@H](CS)NC(=O)[C@H](CCCCN)NC(=O)CN)C(=O)N[C@@H](CCCNC(=N)N)C(=O)NCC(=O)N[C@@H](CCCNC(=N)N)C(=O)N[C@@H](CCCCN)C(=O)N[C@@H](CS)C(=O)N[C@@H](CS)C(=O)N[C@@H](CCCNC(=N)N)C(=O)N[C@@H](CCCNC(=N)N)C(=O)N[C@@H](CCCCN)C(=O)N[C@@H](CCCCN)C(N)=O [RBP]
[1]
  percentage of viable cells: reduced the percentage of viable KRAS G13D mutant cells in a dose-dependent manner
[2]
  percentage of viable cells: reduced the percentage of viable KRAS G13D mutant cells in a dose-dependent manner
[3]; MDA-MB-231, serum-free medium with growth factors, nonadherent conditions, after 3 d (Fig. 2C legend)
  spherical colonies observed in RBP-treated groups: no colonies >30 μm in diameter were observed
[3]; MDA-MB-231, ultralow-attachment plates, 100 μM peptide added on the first day, 10 d
  sphere proliferation vs control: significantly suppressed
[4]
  reduction of cell invasion vs NT group: 70%
[5]
  activation of RAF (phospho-c-RAF): effectively inhibited
[5]; p-ERK/ERK, n = 3
  phosphorylation of ERK1/2: effectively inhibited
[6]
  RAF activation: did not inhibit
[6]; n = 3
  ERK1/2 phosphorylation: did not inhibit
[7]
  RAF activation: did not inhibit
[7]; n = 3
  ERK1/2 phosphorylation: did not inhibit

From article PMC11997307, “Rat Sarcoma (RAS)-Protein-Targeting Synthetic Cell-Penetrating Peptide as an Anticancer Biomaterial” (Biomaterials Research, 2025)
